For one test, the system named is iNOS. The test is described as follows: iNOS measurement by RT-PCR in glycyrrhizin-treated myeloid cells. Format: cell-based, mouse. As to conditions: 100, 200 or 300 μg/ml, cultured 48 hours, vs negative control. As to the method:
Specifically, myeloid cells were isolated from mice of the control of Example 1, treated with glycyrrhizin at a concentration of 100 μg/ml, 200 μg/ml, or 300 μg/ml, and then cultured for 48 hours. Thereafter, RT-PCR was performed. As a negative control, the myeloid cells were treated with 0.1 ml of PBS, and GAPDH was used as an expression control.

Another test deals with mouse myeloid cells. In words: Differentiation into CD11b+Gr1 myeloid cells by glycyrrhizin concentration and culture time, flow cytometric analysis. It is filed as cell-based. As to conditions: for expression level of CD11b+Gr1 myeloid cells: 300 μg/ml. As to the method:
Flow cytometric analysis was performed to determine whether the concentration of glycyrrhizin with which myeloid cells were treated or culture time affects differentiation into CD11b+Gr1 myeloid cells from myeloid cells.
Specifically, mouse myeloid cells were obtained in the same manner as in Example <2-2>, treated with glycyrrhizin at a concentration of 100 μg/ml, 200 μg/ml, or 300 μg/ml, and then cultured for 24 hours or 48 hours. As a control, the myeloid cells were treated with 0.1 ml of PBS. Subsequently, the expression level of the myeloid cells was examined by the same flow cytometric analysis as that used in Example <2-1>.
In general terms: In flow cytometry, cells or beads pass a laser one at a time.

The test system of test [1] is myeloid cells having a phenotype of CD31+. In words: Myeloid cell proliferation after glycyrrhizin treatment without LPS stimulation. Format: cell-based, mouse. As to conditions: 100, 200 or 300 μg/ml; cultured 48 hours; without stimulation by LPS. As to the method: It was examined whether myeloid cells are capable of proliferating even when treated with glycyrrhizin alone without stimulation of the myeloid cells with LPS.
Specifically, myeloid cells having a phenotype of CD31+ were isolated from mouse myeloid cells obtained in the same manner as in Example 2-2. The myeloid cells were treated with glycyrrhizin at a concentration of 100 μg/ml, 200 μg/ml, or 300 μg/ml, and then cultured for 48 hours. As a control, the myeloid cells were treated with 0.1 ml of PBS. Subsequently, the expression level of myeloid cells was examined by the same flow cytometric analysis as that used in Example <2-1>.

Another test concerns T cells. In words: T cell activity measurement by CFSE analysis with glycyrrhizin-induced CD11b+Gr1 myeloid cells as stimulator cells. Format: cell-based, mouse. As to conditions: stimulator cells from 300 μg/ml glycyrrhizin, 48 hours; responder:stimulator 1:1, 1:2, 1:4; 3 days. On the procedure: Specifically, mouse myeloid cells were obtained in the same manner as in Example <2-2>, treated with 300 μg/ml of glycyrrhizin, and then cultured for 48 hours. Subsequently, CD11b+Gr1 myeloid cells induced to be differentiated were stained and separated with FACSAria to be used as stimulator cells, and for responder cells, T cells were isolated with FACSAria from splenocytes of mice of the control of Example 1 and stained with CFSE. The responder cells and the stimulator cells were treated with CD3 and CD28, which induce the activity of T cells, at a ratio of 1:1, 1:2, or 1:4 and further cultured for 3 days.

Structures are written as SMILES.

In the case of `CC1(C)[C@@H](O[C@H]2O[C@H](C(=O)O)[C@@H](O)[C@H](O)[C@H]2O[C@@H]2O[C@H](C(=O)O)[C@@H](O)[C@H](O)[C@H]2O)CC[C@]2(C)[C@H]3C(=O)C=C4[C@@H]5C[C@@](C)(C(=O)O)CC[C@]5(C)CC[C@@]4(C)[C@]3(C)CC[C@@H]12` [glycyrrhizin, ammonium glycyrrhizinate], in the test on iNOS, the “expression level of iNOS” value is recorded as “increased in a concentration-dependent manner”. Also, the “expression level of CD11b+Gr1 myeloid cells” value in the test on mouse myeloid cells (cultured 24 hours (control 9.10%)) came to 29.5%; in the test with mouse myeloid cells (cultured 48 hours (control 10.8%)) it was 53.1%. Besides, the “expression level of CD11b+Gr1 myeloid cells, concentration dependence” value in the test on mouse myeloid cells (100, 200 or 300 μg/ml, cultured 24 hours) is “increased in a concentration-dependent manner”. In addition, in test [1], the “proliferation of the myeloid cells” value is reported as “increased in a manner dependent upon the concentration of glycyrrhizin”. In addition, the “activity of T cells” value with T cells is “the higher the proportion of the stimulator cells (CD11b+Gr1 myeloid cells), the lower the activity of T cells”.

(Values after patent US20200071667A1, “COMPOSITION COMPRISING GLYCYRRHIZIN FOR INDUCING DIFFERENTIATION INTO MYELOID-DERIVED SUPPRESSOR CELL FROM MYELOID CELL” (Konkuk University Glocal Industry-Academic Collabo, priority 2018, published 2020).)
